Data taken from patent publication US20220220095A1, “N-((HETEROARYL)METHYL)-1-TOSYL-1H-PYRAZOLE-3-CARBOXAMIDE DERIVATIVES AS Kv3 POTASSIUM CHANNEL ACTIVATORS FOR TREATING NEUROLOGICAL AND [sequence] DISORDERS” (H. Lundbeck A/S, priority 2019, published 2022).

Biological target: T1, hKv3.1b (Homo sapiens, UniProt P48547)
T1 construct: expressed in transfected cells
T1 sequence (P48547 1-585 isoform P48547-2): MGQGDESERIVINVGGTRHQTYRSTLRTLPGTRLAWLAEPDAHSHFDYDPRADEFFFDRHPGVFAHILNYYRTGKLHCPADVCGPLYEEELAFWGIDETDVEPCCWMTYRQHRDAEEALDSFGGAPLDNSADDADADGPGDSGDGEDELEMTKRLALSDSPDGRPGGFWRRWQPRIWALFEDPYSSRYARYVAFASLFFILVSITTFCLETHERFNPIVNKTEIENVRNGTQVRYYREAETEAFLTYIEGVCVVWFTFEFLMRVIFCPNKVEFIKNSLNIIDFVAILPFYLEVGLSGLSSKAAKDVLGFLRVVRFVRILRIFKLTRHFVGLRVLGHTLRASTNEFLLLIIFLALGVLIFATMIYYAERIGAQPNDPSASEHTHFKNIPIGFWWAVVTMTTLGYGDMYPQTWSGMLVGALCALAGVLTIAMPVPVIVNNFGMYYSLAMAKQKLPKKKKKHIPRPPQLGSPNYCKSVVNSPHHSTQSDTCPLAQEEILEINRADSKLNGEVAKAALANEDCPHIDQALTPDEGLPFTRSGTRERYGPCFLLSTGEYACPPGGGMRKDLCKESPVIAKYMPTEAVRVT
Experiment: Automated whole-cell patch-clamp (QPatch-16x) on HEK-293 cells stably expressing hKv3.1b: shift of voltage threshold for channel activation
Assay type: cell-based
Settings: HEK-293 hKv3.1b; for ECdelta5mV: concentration needed to shift the threshold 5 mV, read out from fitted concentration response curve; for Max Delta threshold: maximum absolute shift of activation threshold to more hyperpolarized potentials at the tested concentrations (0.37, 1.11, 3.33, 10, 30 μM)
Procedure: HEK-293 cells stably expressing hKv3.1b was used for the experiments. Cells were cultured in DMEM medium supplemented with 10% Fetal Bovine Serum, 100 ug/mL Geneticidin and 100 u/mL Penicillin/Streptomycin (all from Gibco). Cells were grown to 80-90% confluency at 37° C. and 5% CO2. On the day of the experiment the cells were detached from the tissue culture flasks by Detachin and resuspended in serum free medium containing 25 mM HEPES and transferred to the cell hotel of the QPatch. The cells were used for experiments 0-5 hours after detachment.
Patch-clamp recordings were performed using the automated recording system QPatch-16x (Sophion Bioscience, Denmark). Cells were centrifuged, SFM removed and the cells were resuspended in extracellular buffer containing (in mM): 145 NaCl, 4 KCl, 1 MgCl2, 2 CaCl2, 10 HEPES and 10 glucose (added fresh on the day of experiment); pH 7.4 adjusted with NaOH, 305 mOsm adjusted with sucrose.
Single cell whole-cell recordings were carried out using an intracellular solution containing (in mM): 120 KCl, 32.25/10 KOH/EGTA, 5.374 CaCl2, 1.75 MgCl2, 10 HEPES, 4 Na2ATP (added fresh on the day), pH 7.2 adjusted with KOH, […] adjusted with sucrose. Cell membrane potentials were held at −80 mV and currents were evoked by voltage steps (200 ms duration) from −70 mV to +10 mV (in 10 mV increments).
Leak subtraction protocol was applied at −33% of the sweep amplitude, and serial resistance values were constantly monitored.
Any cell where serial resistance exceeded 25 MOhm, membrane resistance less than 200 MOhm or current size at −10 mV less than 200 pA was eliminated from the subsequent analysis.
Data analysis was performed using Sophion's QPatch assay software in combination with Microsoft Excel™ (Redmond, Wash., USA).
Current voltage relationships were plotted from the peak current at the individual voltage steps normalized to the vehicle addition at 10 mV. The voltage threshold for channel activation was defined as 5% activation of the peak current at 10 mV in presence of vehicle. The activity of the compounds was described as the ability to shift this current voltage relationship to more hyperpolarized potentials and is given as the maximum absolute shift possible at the tested concentrations (0.37, 1.11, 3.33, 10, 30 μM). Concentration response curves were plotted from the threshold shift at the individual concentrations and were fitted excel fit model 205 sigmodal dose-response model (fit=A+((B−A)/1+((C/x)^D)))), where A is the minimum value, B the maximum value, C the EC50 value and D the slope of the curve. The concentration needed to shift the threshold 5 mV was readout from this curve (ECdelta 5 mV).

ECdelta5mV [nM] | Max Delta threshold [mV] | SMILES
2400 | 22 | Cc1ccccc1S(=O)(=O)n1ccc(C(=O)NCc2cnn(C)c2)n1 [Compound 28, 1-(2-methylbenzene-1-sulfonyl)-N-[(1-methyl-1H-pyrazol-4-yl)methyl]-1H-pyrazole-3-carboxamide]
3100 | 22 | Cc1cc(CNC(=O)c2ccn(S(=O)(=O)c3ccccc3C)n2)on1 [Compound 29, 1-(2-methylbenzene-1-sulfonyl)-N-[(3-methyl-1,2-oxazol-5-yl)methyl]-1H-pyrazole-3-carboxamide]
3400 | 15 | Cc1ccc(S(=O)(=O)n2ccc(C(=O)NCc3ncc(C)o3)n2)cc1 [Compound 30, 1-(4-methylbenzene-1-sulfonyl)-N-[(5-methyl-1,3-oxazol-2-yl)methyl]-1H-pyrazole-3-carboxamide]
4100 | 13 | Cc1cc(CNC(=O)c2ccn(S(=O)(=O)c3ccc(F)cc3)n2)on1 [Compound 31, 1-(4-fluorobenzene-1-sulfonyl)-N-[(3-methyl-1,2-oxazol-5-yl)methyl]-1H-pyrazole-3-carboxamide]
4300 | 12 | Cc1ccc(S(=O)(=O)n2cc(C)c(C(=O)NCc3cnc(C)cn3)n2)cc1 [Compound 32, 4-methyl-1-(4-methylbenzene-1-sulfonyl)-N-[(5-methylpyrazin-2-yl)methyl]-1H-pyrazole-3-carboxamide]
2800 | 12 | Cc1ccc(S(=O)(=O)n2ccc(C(=O)NCc3cnsc3)n2)cc1 [Compound 33, 1-(4-methylbenzene-1-sulfonyl)-N-[(1,2-thiazol-4-yl)methyl]-1H-pyrazole-3-carboxamide]
2800 | 17 | Cc1ccc(CNC(=O)c2ccn(S(=O)(=O)c3ccc(F)cc3)n2)nc1 [Compound 34, 1-(4-fluorobenzene-1-sulfonyl)-N-[(5-methylpyridin-2-yl)methyl]-1H-pyrazole-3-carboxamide]
4800 | 12 | Cn1ccc(CNC(=O)c2ccn(S(=O)(=O)c3ccc(F)cc3)n2)n1 [Compound 35, 1-(4-fluorobenzene-1-sulfonyl)-N-[(1-methyl-1H-pyrazol-3-yl)methyl]-1H-pyrazole-3-carboxamide]
1500 | 17 | COc1ccc(S(=O)(=O)n2ccc(C(=O)NCc3ncc(C)o3)n2)cc1 [Compound 36, 1-(4-methoxybenzene-1-sulfonyl)-N-[(5-methyl-1,3-oxazol-2-yl)methyl]-1H-pyrazole-3-carboxamide]
2400 | 27 | COc1ccc(S(=O)(=O)n2ccc(C(=O)NCc3ncc(C)cn3)n2)cc1 [Compound 37, 1-(4-methoxybenzene-1-sulfonyl)-N-[(5-methylpyrimidin-2-yl)methyl]-1H-pyrazole-3-carboxamide]
1100 | 21 | COc1ccc(S(=O)(=O)n2ccc(C(=O)NCc3cc(C)no3)n2)cc1 [Compound 38, 1-(4-methoxybenzene-1-sulfonyl)-N-[(3-methyl-1,2-oxazol-5-yl)methyl]-1H-pyrazole-3-carboxamide]
1600 | 21 | Cc1ccc(S(=O)(=O)n2ccc(C(=O)NCc3ccn(C)n3)n2)cc1 [Compound 39, 1-(4-methylbenzene-1-sulfonyl)-N-[(1-methyl-1H-pyrazol-3-yl)methyl]-1H-pyrazole-3-carboxamide]
2000 | 21 | COc1ccc(S(=O)(=O)n2ccc(C(=O)NCc3ccc(C)cn3)n2)cc1 [Compound 40, 1-(4-methoxybenzene-1-sulfonyl)-N-[(5-methylpyridin-2-yl)methyl]-1H-pyrazole-3-carboxamide]
1200 | 25 | COc1ccc(S(=O)(=O)n2ccc(C(=O)NCc3cnn(C)c3)n2)cc1 [Compound 41, 1-(4-methoxybenzene-1-sulfonyl)-N-[(1-methyl-1H-pyrazol-4-yl)methyl]-1H-pyrazole-3-carboxamide]
2000 | 18 | COc1ccc(S(=O)(=O)n2ccc(C(=O)NCc3nc(C)no3)n2)cc1 [Compound 42, 1-(4-methoxybenzene-1-sulfonyl)-N-[(3-methyl-1,2,4-oxadiazol-5-yl)methyl]-1H-pyrazole-3-carboxamide]
1600 | 25 | COc1ccc(S(=O)(=O)n2ccc(C(=O)NCc3cnccn3)n2)cc1 [Compound 43, 1-(4-methoxybenzene-1-sulfonyl)-N-[(pyrazin-2-yl)methyl]-1H-pyrazole-3-carboxamide]
1400 | 25 | COc1ccc(S(=O)(=O)n2ccc(C(=O)NCc3ccn(C)n3)n2)cc1 [Compound 44, 1-(4-methoxybenzene-1-sulfonyl)-N-[(1-methyl-1H-pyrazol-3-yl)methyl]-1H-pyrazole-3-carboxamide]
2800 | 15 | Cc1ccc(S(=O)(=O)n2ccc(C(=O)NCc3ncco3)n2)cc1 [Compound 45, 1-(4-methylbenzene-1-sulfonyl)-N-[(1,3-oxazol-2-yl)methyl]-1H-pyrazole-3-carboxamide]
1800 | 22 | Cc1ccc(S(=O)(=O)n2ccc(C(=O)NCc3cn(C)nn3)n2)cc1 [Compound 46, 1-(4-methylbenzene-1-sulfonyl)-N-[(1-methyl-1H-1,2,3-triazol-4-yl)methyl]-1H-pyrazole-3-carboxamide]
3300 | 16 | Cc1ccc(S(=O)(=O)n2ccc(C(=O)NCc3nncs3)n2)cc1 [Compound 47, 1-(4-methylbenzene-1-sulfonyl)-N-[(1,3,4-thiadiazol-2-yl)methyl]-1H-pyrazole-3-carboxamide]
1500 | 24 | Cc1ccc(S(=O)(=O)n2ccc(C(=O)NCc3nc(C)no3)n2)cc1 [Compound 48, 1-(4-methylbenzene-1-sulfonyl)-N-[(3-methyl-1,2,4-oxadiazol-5-yl)methyl]-1H-pyrazole-3-carboxamide]
2000 | 19 | Cc1ccc(S(=O)(=O)n2ccc(C(=O)NCc3cocn3)n2)cc1 [Compound 49, 1-(4-methylbenzene-1-sulfonyl)-N-[(1,3-oxazol-4-yl)methyl]-1H-pyrazole-3-carboxamide]
1700 | 24 | Cc1ccc(S(=O)(=O)n2ccc(C(=O)NCc3cnc(C)nc3)n2)cc1 [Compound 50, 1-(4-methylbenzene-1-sulfonyl)-N-[(2-methylpyrimidin-5-yl)methyl]-1H-pyrazole-3-carboxamide]
3300 | 16 | Cc1ccc(S(=O)(=O)n2ccc(C(=O)NCc3cnoc3)n2)cc1 [Compound 51, 1-(4-methylbenzene-1-sulfonyl)-N-[(1,2-oxazol-4-yl)methyl]-1H-pyrazole-3-carboxamide]
1500 | 16 | Cc1ccc(S(=O)(=O)n2ccc(C(=O)NCc3cscn3)n2)cc1 [Compound 52, 1-(4-methylbenzene-1-sulfonyl)-N-[(1,3-thiazol-4-yl)methyl]-1H-pyrazole-3-carboxamide]
